In patent US20260130395A1, “Water Dispersible Botanical Compositions” (Aquila Black Limited, priority 2021, published 2026):

Key:
[1] = Stability of cannabinoid entourage and Vitamin E components of the powder concentrate by LCMSMS; assay type: physicochemical; settings: powder stored at 21-25° C.
Experimental: At each time period, 0.05 g of powder was dissolved in 10 ml-15 of ethanol, diluted to fall within the analytical range, and injected into the LCMSMS for analysis.

[2] = Stability of cannabinoid compounds and Vitamin E components in Beverage 1 (AB White) by LCMSMS; assay type: physicochemical; settings: AB White stored at 8° C.

With `C=C(C)[C@@H]1CCC(C)=C[C@H]1c1c(O)cc(CCCCC)c(C(=O)O)c1O` [CBDA, cannabidiolic acid] as the compound, how does the “Stability of Plant-Derived Cannabinoid Compounds in Powder Concentrate” value (shortened to “Stability … in Powder Concentrate”) ([1]; 0 days) read?
Its value is 0.410 mg/g powder.

And the “Stability … in Powder Concentrate” value ([1]; 1 days)?
The value was 0.412 mg/g powder.

And the “Stability … in Powder Concentrate” value ([1]; 2 days)?
Its value is 0.407 mg/g powder.

What about the “Stability … in Powder Concentrate” value ([1]; 3 days) of the same compound?
Its value is 0.406 mg/g powder.

What about the “Stability … in Powder Concentrate” value ([1]; 5 days) of the same compound?
The value was 0.414 mg/g powder.

And the “Stability … in Powder Concentrate” value ([1]; 8 days)?
The value was 0.415 mg/g powder.

And the “Stability … in Powder Concentrate” value ([1]; 9 days)?
The value was 0.410 mg/g powder.

And the “Stability … in Powder Concentrate” value ([1]; 10 days)?
Its value is 0.418 mg/g powder.

And the “Stability … in Powder Concentrate” value ([1]; 11 days)?
The value was 0.415 mg/g powder.

And the “Stability … in Powder Concentrate” value ([1]; 12 days)?
The value was 0.396 mg/g powder.

What about the “Stability … in Powder Concentrate” value ([1]; 15 days) of the same compound?
The value was 0.399 mg/g powder.

And the “Stability … in Powder Concentrate” value ([1]; 16 days)?
The value was 0.427 mg/g powder.

And the “Stability … in Powder Concentrate” value ([1]; 17 days)?
The value was 0.421 mg/g powder.

And the “Stability … in Powder Concentrate” value ([1]; 18 days)?
The value was 0.418 mg/g powder.

And the “Stability … in Powder Concentrate” value ([1]; 19 days)?
Its value is 0.414 mg/g powder.

What about the “Stability … in Powder Concentrate” value ([1]; 22 days) of the same compound?
The value was 0.419 mg/g powder.

And the “Stability … in Powder Concentrate” value ([1]; 23 days)?
Its value is 0.396 mg/g powder.

And the “Stability … in Powder Concentrate” value ([1]; 24 days)?
The value was 0.403 mg/g powder.

What about the “Stability … in Powder Concentrate” value ([1]; 25 days) of the same compound?
Its value is 0.401 mg/g powder.

And the “Stability … in Powder Concentrate” value ([1]; 26 days)?
The value was 0.397 mg/g powder.

And the “Stability … in Powder Concentrate” value ([1]; 29 days)?
Its value is 0.426 mg/g powder.

What about the “Stability … in Powder Concentrate” value ([1]; 30 days) of the same compound?
Its value is 0.405 mg/g powder.

What about the “Stability … in Powder Concentrate” value ([1]; 60 days) of the same compound?
Its value is 0.418 mg/g powder.

And the “Stability … in Powder Concentrate” value ([1]; 90 days)?
Its value is 0.413 mg/g powder.

What about the “Stability … in Powder Concentrate” value ([1]; 120 days) of the same compound?
The value was 0.403 mg/g powder.

And the “Stability … in Powder Concentrate” value ([1]; 150 days)?
Its value is 0.412 mg/g powder.

And the “Stability … in Powder Concentrate” value ([1]; 180 days)?
Its value is 0.422 mg/g powder.

And the “Stability … in Powder Concentrate” value ([1]; 210 days)?
Its value is 0.427 mg/g powder.

What about the “Stability … in Powder Concentrate” value ([1]; 240 days) of the same compound?
Its value is 0.417 mg/g powder.

And the “Stability … in Powder Concentrate” value ([1]; 270 days)?
The value was 0.424 mg/g powder.

What about the “Stability … in Powder Concentrate” value ([1]; 300 days) of the same compound?
The value was 0.409 mg/g powder.

And the “Stability … in Powder Concentrate” value ([1]; 330 days)?
Its value is 0.424 mg/g powder.

And the “Stability … in Powder Concentrate” value ([1]; 360 days)?
The value was 0.413 mg/g powder.

What about the “Stability … in Powder Concentrate” value ([1]; 390 days) of the same compound?
Its value is 0.407 mg/g powder.

And the “Stability … in Powder Concentrate” value ([1]; 420 days)?
The value was 0.420 mg/g powder.

And the “Stability … in Powder Concentrate” value ([1]; 450 days)?
Its value is 0.398 mg/g powder.

What about the “Stability … in Powder Concentrate” value ([1]; 480 days) of the same compound?
Its value is 0.418 mg/g powder.

And the “Stability … in Powder Concentrate” value ([1]; 510 days)?
Its value is 0.411 mg/g powder.

What about the “Stability … in Powder Concentrate” value ([1]; 540 days) of the same compound?
The value was 0.425 mg/g powder.

What about the “Stability … in Powder Concentrate” value ([1]; 570 days) of the same compound?
Its value is 0.408 mg/g powder.

And the “Stability of Plant-Derived Cannabinoid Compounds in AB White, 8° C.” value (shortened to “Stability … 8° C.”) ([2]; 0 days)?
The value was 1.75 µg/mL.

And the “Stability … 8° C.” value ([2]; 1 days)?
The value was 1.72 µg/mL.

And the “Stability … 8° C.” value ([2]; 2 days)?
Its value is 1.76 µg/mL.

And the “Stability … 8° C.” value ([2]; 3 days)?
Its value is 1.76 µg/mL.

And the “Stability … 8° C.” value ([2]; 5 days)?
Its value is 1.71 µg/mL.

What about the “Stability … 8° C.” value ([2]; 8 days) of the same compound?
The value was 1.75 µg/mL.

And the “Stability … 8° C.” value ([2]; 9 days)?
Its value is 1.73 µg/mL.

And the “Stability … 8° C.” value ([2]; 10 days)?
The value was 1.76 µg/mL.

And the “Stability … 8° C.” value ([2]; 11 days)?
Its value is 1.70 µg/mL.

What about the “Stability … 8° C.” value ([2]; 12 days) of the same compound?
Its value is 1.71 µg/mL.

What about the “Stability … 8° C.” value ([2]; 15 days) of the same compound?
Its value is 1.74 µg/mL.

And the “Stability … 8° C.” value ([2]; 16 days)?
The value was 1.73 µg/mL.

What about the “Stability … 8° C.” value ([2]; 17 days) of the same compound?
The value was 1.73 µg/mL.

And the “Stability … 8° C.” value ([2]; 18 days)?
The value was 1.76 µg/mL.

What about the “Stability … 8° C.” value ([2]; 19 days) of the same compound?
Its value is 1.74 µg/mL.

And the “Stability … 8° C.” value ([2]; 22 days)?
Its value is 1.70 µg/mL.

And the “Stability … 8° C.” value ([2]; 23 days)?
Its value is 1.76 µg/mL.

What about the “Stability … 8° C.” value ([2]; 24 days) of the same compound?
Its value is 1.72 µg/mL.

And the “Stability … 8° C.” value ([2]; 25 days)?
Its value is 1.75 µg/mL.

What about the “Stability … 8° C.” value ([2]; 26 days) of the same compound?
The value was 1.75 µg/mL.
